This is an account of results in patent US12448392B2, “Spiropiperidine derivatives” (89BIO LTD, priority 2016, dated 2025).

The target in one assay is T1, recombinant human baculovirus-expressed GST-tagged FASN (Homo sapiens, UniProt P49327).
T1 construct: GST
T1 sequence (P49327 whole entry): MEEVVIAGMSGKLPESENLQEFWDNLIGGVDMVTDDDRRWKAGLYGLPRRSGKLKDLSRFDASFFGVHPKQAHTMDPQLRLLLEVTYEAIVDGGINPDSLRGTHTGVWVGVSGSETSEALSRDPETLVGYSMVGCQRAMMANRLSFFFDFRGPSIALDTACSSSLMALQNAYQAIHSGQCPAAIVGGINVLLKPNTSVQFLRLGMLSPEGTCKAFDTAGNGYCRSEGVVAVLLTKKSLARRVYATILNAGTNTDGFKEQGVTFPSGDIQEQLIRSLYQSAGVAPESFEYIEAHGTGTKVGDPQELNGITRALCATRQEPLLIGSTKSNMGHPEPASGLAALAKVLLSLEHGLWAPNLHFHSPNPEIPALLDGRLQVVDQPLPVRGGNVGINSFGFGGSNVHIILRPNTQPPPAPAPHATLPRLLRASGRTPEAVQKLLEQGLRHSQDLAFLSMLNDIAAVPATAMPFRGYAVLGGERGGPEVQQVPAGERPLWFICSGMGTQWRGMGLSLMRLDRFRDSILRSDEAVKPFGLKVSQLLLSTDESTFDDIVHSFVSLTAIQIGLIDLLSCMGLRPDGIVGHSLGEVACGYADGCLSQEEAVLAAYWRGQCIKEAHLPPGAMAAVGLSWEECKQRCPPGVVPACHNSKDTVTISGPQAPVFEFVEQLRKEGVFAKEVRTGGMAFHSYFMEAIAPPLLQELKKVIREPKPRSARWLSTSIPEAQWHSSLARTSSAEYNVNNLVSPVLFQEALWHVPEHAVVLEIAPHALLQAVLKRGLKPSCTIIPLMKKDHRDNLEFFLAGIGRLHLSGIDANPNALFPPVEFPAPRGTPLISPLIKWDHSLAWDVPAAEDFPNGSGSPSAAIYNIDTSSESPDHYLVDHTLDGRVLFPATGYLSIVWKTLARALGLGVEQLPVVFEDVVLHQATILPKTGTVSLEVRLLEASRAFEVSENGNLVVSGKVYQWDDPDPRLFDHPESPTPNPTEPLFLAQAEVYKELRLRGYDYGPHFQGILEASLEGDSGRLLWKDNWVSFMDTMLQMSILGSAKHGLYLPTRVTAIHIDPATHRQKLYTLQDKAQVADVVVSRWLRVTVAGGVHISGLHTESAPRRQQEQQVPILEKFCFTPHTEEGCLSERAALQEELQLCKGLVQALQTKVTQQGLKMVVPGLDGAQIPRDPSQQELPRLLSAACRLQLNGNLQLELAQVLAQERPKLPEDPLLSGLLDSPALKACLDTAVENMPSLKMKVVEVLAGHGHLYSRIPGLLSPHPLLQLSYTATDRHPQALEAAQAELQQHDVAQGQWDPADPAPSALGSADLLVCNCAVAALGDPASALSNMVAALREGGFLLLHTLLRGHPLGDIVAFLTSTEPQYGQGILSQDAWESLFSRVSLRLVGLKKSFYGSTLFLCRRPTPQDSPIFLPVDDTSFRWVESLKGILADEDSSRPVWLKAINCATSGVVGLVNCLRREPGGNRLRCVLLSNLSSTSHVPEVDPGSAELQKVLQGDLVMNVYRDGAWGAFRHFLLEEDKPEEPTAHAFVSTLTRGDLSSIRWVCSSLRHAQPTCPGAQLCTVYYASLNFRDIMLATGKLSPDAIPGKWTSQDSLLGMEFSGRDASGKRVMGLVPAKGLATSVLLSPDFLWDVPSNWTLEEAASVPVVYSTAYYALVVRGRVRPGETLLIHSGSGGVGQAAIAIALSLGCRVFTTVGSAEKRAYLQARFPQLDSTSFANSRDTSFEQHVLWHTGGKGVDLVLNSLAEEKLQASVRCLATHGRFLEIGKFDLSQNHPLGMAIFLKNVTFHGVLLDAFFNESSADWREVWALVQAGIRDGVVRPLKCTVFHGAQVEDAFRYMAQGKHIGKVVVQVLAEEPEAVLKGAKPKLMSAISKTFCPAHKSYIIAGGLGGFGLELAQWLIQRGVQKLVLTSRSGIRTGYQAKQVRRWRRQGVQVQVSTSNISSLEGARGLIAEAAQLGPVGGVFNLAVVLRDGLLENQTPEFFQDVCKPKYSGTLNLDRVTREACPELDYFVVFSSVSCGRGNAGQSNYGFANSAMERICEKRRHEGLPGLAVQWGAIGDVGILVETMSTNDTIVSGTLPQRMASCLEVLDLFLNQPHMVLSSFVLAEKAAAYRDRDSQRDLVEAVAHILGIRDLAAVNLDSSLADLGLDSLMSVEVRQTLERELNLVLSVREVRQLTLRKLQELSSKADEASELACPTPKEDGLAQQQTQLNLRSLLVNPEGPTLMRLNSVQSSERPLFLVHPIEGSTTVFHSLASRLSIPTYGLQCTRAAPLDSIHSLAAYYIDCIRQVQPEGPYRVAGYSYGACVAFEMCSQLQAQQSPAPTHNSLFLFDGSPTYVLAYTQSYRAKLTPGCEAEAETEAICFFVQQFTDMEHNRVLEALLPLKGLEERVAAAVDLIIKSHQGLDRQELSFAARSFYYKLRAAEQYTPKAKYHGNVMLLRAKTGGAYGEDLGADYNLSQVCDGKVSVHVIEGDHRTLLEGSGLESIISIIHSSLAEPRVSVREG
Briefly: biochemical.
Settings: not given
Usually IC50 stands for the concentration at which inhibition is half-maximal. With `CCNC(=O)N1CCC2(CC1)OCc1cc(-c3ccc4cccnc4c3C)ccc1O2` [Example 117, N-Ethyl-6-(8-methyl-7-quinolyl)spiro[4H-1,3-benzodioxine-2,4′-piperidine]-1′-carboxamide], the IC50 was in the range of 1 to 99 nM.
The same measure, in the same setting: the value for `Cc1c(-c2ccc3c(c2)COC2(CCN(C(N)=O)CC2)O3)ccc2cccnc12` [Example 118, 6-(8-Methyl-7-quinolyl)spiro[4H-1,3-benzodioxine-2,4′-piperidine]-1′-carboxamide] was 1 to 99 nM; that for `Cc1c(-c2ccc3c(c2)COC2(CCN(C(=O)NC(C)C)CC2)O3)ccc2cccnc12` [Example 119, N-Isopropyl-6-(8-methyl-7-quinolyl)spiro[4H-1,3-benzodioxine-2,4′-piperidine]-1′-carboxamide] was 1 to 99 nM.
The same measure, in the same setting: the value for `CCONC(=O)N1CCC2(CC1)OCc1cc(-c3ccc4cccnc4c3C)ccc1O2` [Example 121, N-Ethoxy-6-(8-methyl-7-quinolyl)spiro[4H-1,3-benzodioxine-2,4′-piperidine]-1′-carboxamide] was 1 to 99 nM.
Same read-out and setting: the value for `CONC(=O)N1CCC2(CC1)OCc1cc(-c3ccc4cccnc4c3C)ccc1O2` [Example 122, N-Methoxy-6-(8-methyl-7-quinolyl)spiro[4H-1,3-benzodioxine-2,4′-piperidine]-1′-carboxamide] was 1 to 99 nM; that for `Cc1c(-c2ccc3c(c2)COC2(CCN(C(=O)NOC(C)C)CC2)O3)ccc2cccnc12` [Example 123, N-Isopropoxy-6-(8-methyl-7-quinolyl)spiro[4H-1,3-benzodioxine-2,4′-piperidine]-1′-carboxamide] was 1 to 99 nM.
In the case of `CCNC(=O)N1CCC2(CC1)OCc1cc(-c3ccc4ccnn4c3C)ccc1O2` [Example 126, N-Ethyl-6-(7-methylpyrazolo[1,5-a]pyridin-6-yl)spiro[4H-1,3-benzodioxine-2,4′-piperidine]-1′-carboxamide], the IC50 is 1 to 99 nM.
Still for that read-out and setting: the value for `Cc1c(-c2ccc3c(c2)COC2(CCN(C(N)=O)CC2)O3)ccc2ccnn12` [Example 127, 6-(7-Methylpyrazolo[1,5-a]pyridin-6-yl)spiro[4H-1,3-benzodioxine-2,4′-piperidine]-1′-carboxamide] was 100 to 999 nM.
The same measure, in the same setting: the value for `CONC(=O)N1CCC2(CC1)OCc1cc(-c3ccc4ccnn4c3C)ccc1O2` [Example 128, N-Methoxy-6-(7-methylpyrazolo[1,5-a]pyridin-6-yl)spiro[4H-1,3-benzodioxine-2,4′-piperidine]-1′-carboxamide] was 1 to 99 nM; that for `CCONC(=O)N1CCC2(CC1)OCc1cc(-c3ccc4ccnn4c3C)ccc1O2` [Example 129, N-Ethoxy-6-(7-methylpyrazolo[1,5-a]pyridin-6-yl)spiro[4H-1,3-benzodioxine-2,4′-piperidine]-1′-carboxamide] was 1 to 99 nM.
Take `Cc1c(-c2ccc3c(c2)COC2(CCN(C(=O)NOC(C)C)CC2)O3)ccc2ccnn12` [Example 130, N-Isopropoxy-6-(7-methylpyrazolo[1,5-a]pyridin-6-yl)spiro[4H-1,3-benzodioxine-2,4′-piperidine]-1′-carboxamide]: the IC50 fell in the range of 1 to 99 nM.
Consider `NC(=O)N1CCC2(CC1)OCc1cc(-c3ccc4cccnc4c3Cl)ccc1O2` [Example 131, 6-(8-Chloro-7-quinolyl)spiro[4H-1,3-benzodioxine-2,4′-piperidine]-1′-carboxamide], for which the IC50 fell in the range of 100 to 999 nM.
The same measure, in the same setting: the value for `Cc1c(-c2ccc3c(c2)COC2(CCN(C(N)=O)CC2)O3)cnc2ccccc12` [Example 132, 6-(4-Methyl-3-quinolyl)spiro[4H-1,3-benzodioxine-2,4′-piperidine]-1′-carboxamide] was 100 to 999 nM; that for `CONC(=O)N1CCC2(CC1)OCc1cc(-c3cnc4ccccc4c3C)ccc1O2` [Example 133, N-Methoxy-6-(4-methyl-3-quinolyl)spiro[4H-1,3-benzodioxine-2,4′-piperidine]-1′-carboxamide] was 1 to 99 nM.
On the same count and under the same terms, the value for `CONC(=O)N1CCC2(CC1)OCc1cc(-c3ccc4cccnc4c3Cl)ccc1O2` [Example 134, 6-(8-Chloro-7-quinolyl)-N-methoxy-spiro[4H-1,3-benzodioxine-2,4′-piperidine]-1′-carboxamide] was 1 to 99 nM; that for `CCONC(=O)N1CCC2(CC1)OCc1cc(-c3ccc4cccnc4c3Cl)ccc1O2` [Example 135, 6-(8-Chloro-7-quinolyl)-N-ethoxy-spiro[4H-1,3-benzodioxine-2,4′-piperidine]-1′-carboxamide] was 1 to 99 nM; that for `O=C(NO)N1CCC2(CC1)OCc1cc(-c3ccc4cccnc4c3Cl)ccc1O2` [Example 136, 6-(8-Chloro-7-quinolyl)spiro[4H-1,3-benzodioxine-2,4′-piperidine]-1′-carbohydroxamic acid] was 100 to 999 nM.
The same measure, in the same setting: the value for `CCOC(=O)N1CCC2(CC1)OCc1cc(-c3ccc4cccnc4c3Cl)ccc1O2` [Example 137, Ethyl 6-(8-chloro-7-quinolyl)spiro[4H-1,3-benzodioxine-2,4′-piperidine]-1′-carboxylate] was 1000 to 10000 nM; that for `CCOC(=O)N1CCC2(CC1)OCc1cc(-c3cnc4ccccc4c3C)ccc1O2` [Example 138, Ethyl 6-(4-methyl-3-quinolyl)spiro[4H-1,3-benzodioxine-2,4′-piperidine]-1′-carboxylate] was 100 to 999 nM; that for `CCONC(=O)N1CCC2(CC1)OCc1cc(-c3cnc4ccccc4c3C)ccc1O2` [Example 139, N-Ethoxy-6-(4-methyl-3-quinolyl)spiro[4H-1,3-benzodioxine-2,4′-piperidine]-1′-carboxamide] was 1 to 99 nM.
Regarding `Cc1c(-c2ccc3c(c2)COC2(CCN(C(=O)NO)CC2)O3)cnc2ccccc12` [Example 140, 6-(4-Methyl-3-quinolyl)spiro[4H-1,3-benzodioxine-2,4′-piperidine]-1′-carbohydroxamic acid], the IC50 lay in the range of 1000 to 10000 nM.
Still for that read-out and setting: the value for `NC(=O)N1CCC2(CC1)OCc1cc(-c3cc4ccccc4cn3)ccc1O2` [Example 142, 6-(3-Isoquinolyl)spiro[4H-1,3-benzodioxine-2,4′-piperidine]-1′-carboxamide] was 1000 to 10000 nM.

The same assay, now with this note: 5 nM FASN, 150 μM NADPH, 10 μM acetyl-CoA, 25 μM malonyl-CoA, 90 minutes incubation; read-out: IC50 data for Compounds of Formula I, Activity.
Consider `Cc1c(-c2ccc3c(c2)CCC2(CCN(C(N)=O)CC2)O3)ccc2cccnc12` [Example 106, 6-(8-Methyl-7-quinolyl)spiro[chromane-2,4′-piperidine]-1′-carboxamide], for which the IC50 was 1 to 99 nM.
With `CCONC(=O)N1CCC2(CCc3cc(-c4ccc5nccn5c4C)ccc3O2)CC1` [Example 107, N-Ethoxy-6-(5-methylimidazo[1,2-a]pyridin-6-yl)spiro[chromane-2,4′-piperidine]-1′-carboxamide], the IC50 lay within 1 to 99 nM.
The same measure, in the same setting: the value for `Cc1c(-c2ccc3c(c2)CCC2(CCN(C(=O)NOC(C)C)CC2)O3)ccc2nccn12` [Example 108, N-Isopropoxy-6-(5-methylimidazo[1,2-a]pyridin-6-yl)spiro[chromane-2,4′-piperidine]-1′-carboxamide] was 1 to 99 nM; that for `Cc1c(-c2ccc3c(c2)CCC2(CCN(C(N)=O)CC2)O3)ccc2nccn12` [Example 109, 6-(5-Methylimidazo[1,2-a]pyridin-6-yl)spiro[chromane-2,4′-piperidine]-1′-carboxamide] was 100 to 999 nM; that for `CCNC(=O)N1CCC2(CCc3cc(-c4ccc5nccn5c4C)ccc3O2)CC1` [Example 110, N-Ethyl-6-(5-methylimidazo[1,2-a]pyridin-6-yl)spiro[chromane-2,4′-piperidine]-1′-carboxamide] was 1 to 99 nM.
Same read-out and setting: the value for `Cc1c(-c2ccc3c(c2)CCC2(CCN(C(=O)NC(C)C)CC2)O3)ccc2nccn12` [Example 111, N-Isopropyl-6-(5-methylimidazo[1,2-a]pyridin-6-yl)spiro[chromane-2,4′-piperidine]-1′-carboxamide] was 100 to 999 nM.
For `CCNC(=O)N1CCC2(CCc3cc(-c4ccc5ccnn5c4C)ccc3O2)CC1` [Example 112, N-Ethyl-6-(7-methylpyrazolo[1,5-a]pyridin-6-yl)spiro[chromane-2,4′-piperidine]-1′-carboxamide], the IC50 is 1 to 99 nM.
Same read-out and setting: the value for `Cc1c(-c2ccc3c(c2)CCC2(CCN(C(=O)NC(C)C)CC2)O3)ccc2ccnn12` [Example 113, N-Isopropyl-6-(7-methylpyrazolo[1,5-a]pyridin-6-yl)spiro[chromane-2,4′-piperidine]-1′-carboxamide] was 100 to 999 nM; that for `Cc1c(-c2ccc3c(c2)CCC2(CCN(C(N)=O)CC2)O3)ccc2ccnn12` [Example 114, 6-(7-Methylpyrazolo[1,5-a]pyridin-6-yl)spiro[chromane-2,4′-piperidine]-1′-carboxamide] was 1 to 99 nM.
The same measure, in the same setting: the value for `CCONC(=O)N1CCC2(CCc3cc(-c4ccc5ccnn5c4C)ccc3O2)CC1` [Example 115, N-Ethoxy-6-(7-methylpyrazolo[1,5-a]pyridin-6-yl)spiro[chromane-2,4′-piperidine]-1′-carboxamide] was 1 to 99 nM; that for `Cc1c(-c2ccc3c(c2)CCC2(CCN(C(=O)NOC(C)C)CC2)O3)ccc2ccnn12` [Example 116, N-Isopropoxy-6-(7-methylpyrazolo[1,5-a]pyridin-6-yl)spiro[chromane-2,4′-piperidine]-1′-carboxamide] was 1 to 99 nM.
Same read-out and setting: the value for `CONC(=O)N1CCC2(CCc3cc(-c4ccc5cccnc5c4C)ccc3O2)CC1` [Example 120, N-Methoxy-6-(8-methyl-7-quinolyl)spiro[chromane-2,4′-piperidine]-1′-carboxamide] was 1 to 99 nM; that for `CONC(=O)N1CCC2(CCc3cc(-c4ccc5ccnn5c4C)ccc3O2)CC1` [Example 124, N-Methoxy-6-(7-methylpyrazolo[1,5-a]pyridin-6-yl)spiro[chromane-2,4′-piperidine]-1′-carboxamide] was 1 to 99 nM; that for `Cc1c(-c2ccc3c(c2)CCC2(CCN(C(=O)NO)CC2)O3)ccc2ccnn12` [Example 125, 6-(7-Methylpyrazolo[1,5-a]pyridin-6-yl)spiro[chromane-2,4′-piperidine]-1′-carbohydroxamic acid] was 1000 to 10000 nM.
Turning to `Cc1c(-c2ccc3c(c2)CCC2(CCN(C(=O)NO)CC2)O3)ccc2nccn12` [Example 141, 6-(5-Methylimidazo[1,2-a]pyridin-6-yl)spiro[chromane-2,4′-piperidine]-1′-carbohydroxamic acid], the IC50 lay in the range of 1000 to 10000 nM.
